Measurements taken from the NIST ThermoML archive (doi:10.1021/je034279l).

Legend:
[1] = 298.15 K; for surface tension liquid-gas: Pendant drop shape; for mass density: 101.33 kPa, Liquid
[2] = xn = mol fraction of the nth substance listed; details: 298.15 K; for surface tension liquid-gas: Pendant drop shape; for excess molar volume: 101 kPa, Liquid

Cc1ccccc1C [1,2-dimethylbenzene]
[1]
Details | mass density [kg/m3] | surface tension liquid-gas [mN/m]
– | 875.92 | 29.35

Cc1ccccc1C [1,2-dimethylbenzene] + CC(C)OC(C)C
[2]
Details | excess molar volume [m3/mol] | surface tension liquid-gas [mN/m]
x2 = 0.0506 | -1.77e-07 | –
x2 = 0.0997 | -3.15e-07 | –
x2 = 0.1022 | – | 27.21
x2 = 0.1501 | -4.49e-07 | –
x2 = 0.2003 | -5.74e-07 | –
x2 = 0.201 | – | 25.55
x2 = 0.2503 | -6.91e-07 | –
x2 = 0.3003 | -7.82e-07 | –
x2 = 0.3018 | – | 24.17
x2 = 0.35 | -8.39e-07 | –
x2 = 0.4004 | -8.83e-07 | –
x2 = 0.4037 | – | 23.01
x2 = 0.4497 | -9.22e-07 | –
x2 = 0.4997 | – | 22
x2 = 0.505 | -9.36e-07 | –
x2 = 0.5505 | -9.48e-07 | –
x2 = 0.5998 | – | 21.03
x2 = 0.6001 | -9.1e-07 | –
x2 = 0.6509 | -8.82e-07 | –
x2 = 0.7 | -8.11e-07 | –
x2 = 0.7013 | – | 20
x2 = 0.7502 | -7.47e-07 | –
x2 = 0.7987 | – | 19.15
x2 = 0.7999 | -6.31e-07 | –
x2 = 0.8502 | -5.11e-07 | –
x2 = 0.8987 | – | 18.08
x2 = 0.8997 | -3.69e-07 | –
x2 = 0.9493 | -2.1e-07 | –

Cc1ccccc1C [1,2-dimethylbenzene] + COC(C)(C)C
[2]
Details | surface tension liquid-gas [mN/m]
x2 = 0.0997 | 27.9
x2 = 0.1996 | 26.62
x2 = 0.3012 | 25.28
x2 = 0.4008 | 24.14
x2 = 0.4997 | 23.12
x2 = 0.6012 | 22.17
x2 = 0.7002 | 21.3
x2 = 0.8 | 20.57
x2 = 0.8999 | 19.78

Cc1cccc(C)c1 [1,3-dimethylbenzene]
[1]
Details | mass density [kg/m3] | surface tension liquid-gas [mN/m]
– | 859.78 | 28.36

Cc1cccc(C)c1 [1,3-dimethylbenzene] + CC(C)OC(C)C
[2]
Details | excess molar volume [m3/mol] | surface tension liquid-gas [mN/m]
x2 = 0.0514 | -1.35e-07 | –
x2 = 0.1002 | -2.42e-07 | –
x2 = 0.1019 | – | 26.38
x2 = 0.1526 | -3.55e-07 | –
x2 = 0.1997 | -4.41e-07 | –
x2 = 0.2111 | – | 24.88
x2 = 0.2501 | -5.2e-07 | –
x2 = 0.3002 | -5.79e-07 | 23.72
x2 = 0.3498 | -6.37e-07 | –
x2 = 0.3999 | – | 22.67
x2 = 0.4001 | -6.7e-07 | –
x2 = 0.4516 | -7.11e-07 | –
x2 = 0.4991 | – | 21.73
x2 = 0.5012 | -7.15e-07 | –
x2 = 0.5509 | -7.18e-07 | –
x2 = 0.6001 | -6.92e-07 | –
x2 = 0.6006 | – | 20.86
x2 = 0.65 | -6.71e-07 | –
x2 = 0.6944 | -6.17e-07 | –
x2 = 0.6994 | – | 19.91
x2 = 0.7498 | -5.58e-07 | –
x2 = 0.7998 | – | 19.02
x2 = 0.8005 | -4.77e-07 | –
x2 = 0.8506 | -3.93e-07 | –
x2 = 0.8981 | – | 18.12
x2 = 0.8998 | -2.83e-07 | –
x2 = 0.95 | -1.64e-07 | –

Cc1cccc(C)c1 [1,3-dimethylbenzene] + COC(C)(C)C
[2]
Details | surface tension liquid-gas [mN/m]
x2 = 0.1019 | 27.13
x2 = 0.2019 | 26.05
x2 = 0.3028 | 24.98
x2 = 0.4014 | 23.99
x2 = 0.4996 | 23.01
x2 = 0.6006 | 22.08
x2 = 0.7009 | 21.26
x2 = 0.8001 | 20.49
x2 = 0.9004 | 19.76

Cc1ccc(C)cc1 [1,4-dimethylbenzene]
[1]
Details | mass density [kg/m3] | surface tension liquid-gas [mN/m]
– | 856.85 | 27.89

COC(C)(C)C [2-methoxy-2-methylpropane]
[1]
Details | mass density [kg/m3] | surface tension liquid-gas [mN/m]
– | 735.48 | 19.25

COC(C)(C)C [2-methoxy-2-methylpropane] + Cc1ccc(C)cc1
[2]
Details | surface tension liquid-gas [mN/m]
x1 = 0.1008 | 26.85
x1 = 0.1998 | 25.81
x1 = 0.3012 | 24.78
x1 = 0.4026 | 23.84
x1 = 0.4997 | 22.96
x1 = 0.6004 | 22.08
x1 = 0.6993 | 21.24
x1 = 0.8 | 20.48
x1 = 0.9002 | 19.78

CC(C)OC(C)C [diisopropyl ether]
[1]
Details | mass density [kg/m3] | surface tension liquid-gas [mN/m]
– | 718.38 | 17.31

CC(C)OC(C)C [diisopropyl ether] + Cc1ccc(C)cc1
[2]
Details | excess molar volume [m3/mol] | surface tension liquid-gas [mN/m]
x1 = 0.0527 | -1.36e-07 | –
x1 = 0.0988 | – | 26.3
x1 = 0.1016 | -2.79e-07 | –
x1 = 0.15 | -3.98e-07 | –
x1 = 0.2011 | -5.1e-07 | –
x1 = 0.2012 | – | 24.84
x1 = 0.2527 | -5.88e-07 | –
x1 = 0.2991 | – | 23.73
x1 = 0.3004 | -6.58e-07 | –
x1 = 0.3509 | -7.3e-07 | –
x1 = 0.4007 | -7.61e-07 | –
x1 = 0.4045 | – | 22.68
x1 = 0.4506 | -7.85e-07 | –
x1 = 0.5044 | -8.02e-07 | –
x1 = 0.5096 | – | 21.66
x1 = 0.5507 | -7.95e-07 | –
x1 = 0.6002 | -7.87e-07 | –
x1 = 0.603 | – | 20.76
x1 = 0.6498 | -7.56e-07 | –
x1 = 0.7 | – | 19.91
x1 = 0.7007 | -7.02e-07 | –
x1 = 0.7497 | -6.25e-07 | –
x1 = 0.7987 | – | 19.02
x1 = 0.7999 | -5.37e-07 | –
x1 = 0.8512 | -4.32e-07 | –
x1 = 0.898 | – | 18.18
x1 = 0.9 | -3.18e-07 | –
x1 = 0.9507 | -1.78e-07 | –
